Experimental data published in PMC7213754 (Clinical cancer research : an official journal of the …, 2009).
Where “and” joins values, the source holds several entries; their conditions need not be identical. Identical values can stand only once. Entries after “also recorded” stand apart in the source; their conditions may differ.

How the values were obtained:
[1] = cited from earlier work
Pgp [2] = biological target: T1, Pgp (Homo sapiens, UniProt P08183); test: Rhodamine efflux from circulating CD56+ cells of patients
T1 sequence (P08183 whole entry): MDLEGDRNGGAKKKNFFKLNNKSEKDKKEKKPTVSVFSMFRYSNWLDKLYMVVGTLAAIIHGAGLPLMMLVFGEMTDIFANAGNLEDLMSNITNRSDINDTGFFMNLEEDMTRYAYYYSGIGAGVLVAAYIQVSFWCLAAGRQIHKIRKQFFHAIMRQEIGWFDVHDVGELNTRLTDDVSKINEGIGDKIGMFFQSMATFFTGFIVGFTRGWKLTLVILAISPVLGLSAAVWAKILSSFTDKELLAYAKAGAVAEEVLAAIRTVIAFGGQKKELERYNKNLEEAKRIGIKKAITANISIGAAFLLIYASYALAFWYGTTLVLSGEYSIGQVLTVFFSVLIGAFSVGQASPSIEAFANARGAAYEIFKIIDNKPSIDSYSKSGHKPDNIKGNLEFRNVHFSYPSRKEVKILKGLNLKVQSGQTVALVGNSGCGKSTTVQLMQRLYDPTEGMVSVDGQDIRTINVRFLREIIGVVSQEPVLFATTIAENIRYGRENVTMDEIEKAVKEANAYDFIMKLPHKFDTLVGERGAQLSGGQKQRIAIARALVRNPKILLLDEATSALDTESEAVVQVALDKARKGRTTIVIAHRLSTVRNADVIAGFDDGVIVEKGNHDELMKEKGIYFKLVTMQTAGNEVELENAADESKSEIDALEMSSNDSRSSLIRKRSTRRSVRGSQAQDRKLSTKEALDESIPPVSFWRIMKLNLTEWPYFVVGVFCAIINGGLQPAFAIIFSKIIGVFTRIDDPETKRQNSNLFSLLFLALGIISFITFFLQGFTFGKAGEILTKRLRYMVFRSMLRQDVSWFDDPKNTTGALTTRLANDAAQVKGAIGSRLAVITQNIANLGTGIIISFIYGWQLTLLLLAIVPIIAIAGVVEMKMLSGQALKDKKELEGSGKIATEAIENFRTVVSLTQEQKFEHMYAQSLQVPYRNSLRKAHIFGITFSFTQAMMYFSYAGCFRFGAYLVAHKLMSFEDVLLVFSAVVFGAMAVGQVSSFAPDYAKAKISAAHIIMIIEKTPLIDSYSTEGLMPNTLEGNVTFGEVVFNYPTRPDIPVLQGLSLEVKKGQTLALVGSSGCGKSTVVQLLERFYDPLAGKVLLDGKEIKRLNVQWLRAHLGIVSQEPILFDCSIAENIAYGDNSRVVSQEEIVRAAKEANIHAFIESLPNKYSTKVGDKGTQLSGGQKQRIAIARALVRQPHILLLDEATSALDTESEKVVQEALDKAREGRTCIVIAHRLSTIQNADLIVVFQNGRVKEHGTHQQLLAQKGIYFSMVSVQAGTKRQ

[3] = test system: multidrug-resistant human tumor cell lines; conditions: in vitro; cited from earlier work
[4] = Tariquidar pharmacokinetics in patients; type: in vivo, human; conditions: for concentration at 24 h / concentration at 48 h: intravenous, mean plasma concentration
Pgp [5] = biological target: T1, Pgp; conditions: 150 mg tariquidar; cited from earlier work
Pgp [6] = conditions: cited from earlier work
[7] = Vinorelbine pharmacokinetics in patients, alone and with tariquidar; type: in vivo, human; conditions: for effect of tariquidar on vinorelbine pharmacokinetics: tariquidar 150 mg before vinorelbine
Pgp [8] = biological target: T1, Pgp; test: 99mTc-sestamibi scanning at baseline and after tariquidar; type: in vivo
[9] = cycle 2, 150 mg i.v. over 30 min, individual patients
[10] = vinorelbine after tariquidar (post), individual patients
[11] = vinorelbine after tariquidar, eight patients
[12] = vinorelbine alone (pre), individual patients
[13] = vinorelbine alone, eight patients

## O[C@@H](COc1cccc2ncccc12)CN1CCN([C@@H]2c3ccccc3[C@@H]3[C@H](c4ccccc42)C3(F)F)CC1 [zosuquidar]
[1]; phase I study
  effect of zosuquidar on vinorelbine clearance: may inhibit vinorelbine clearance to a modest degree

## C/C=C/C[C@@H](C)C(=O)[C@H]1C(=O)N[C@@H](C(C)C)C(=O)N(C)CC(=O)N(C)[C@@H](CC(C)C)C(=O)N[C@@H](C(C)C)C(=O)N(C)[C@@H](CC(C)C)C(=O)N[C@@H](C)C(=O)N[C@H](C)C(=O)N(C)[C@@H](CC(C)C)C(=O)N(C)[C@@H](CC(C)C)C(=O)N(C)[C@@H](C(C)C)C(=O)N1C [PSC833, valspodar]
Pgp [2]; added exogenously to blood sample
  rhodamine efflux from CD56+ cells with exogenously added inhibitor: completely blocked

## COc1cc2c(cc1OC)CN(CCc1ccc(NC(=O)c3cc(OC)c(OC)cc3NC(=O)c3cnc4ccccc4c3)cc1)CC2 [tariquidar]
[3]
  duration of action after removal of drug from the culture medium: at least 22 hours
In vivo
  tolerability: well-tolerated
[4]; 150 mg tariquidar
  difference in drug exposure between 2 patients: > 7 fold
[4]; [9]
  Clearance: 170 mL/min and 312 mL/min and 559 mL/min and 309 mL/min and 249 mL/min and 302 mL/min and 444 mL/min and 784 mL/min and 221 mL/min and 269 mL/min and 623 mL/min and 166 mL/min and 83 mL/min and 129 mL/min and 111 mL/min and 137 mL/min and 108 mL/min and 191 mL/min
  Cmax: 1,551 ng/mL and 1,317 ng/mL and 963 ng/mL and 1,362 ng/mL and 1,102 ng/mL and 582 ng/mL and 1,168 ng/mL and 516 ng/mL and 912 ng/mL and 911 ng/mL and 622 ng/mL and 5,793 ng/mL and 3,632 ng/mL and 1,266 ng/mL and 6,113 ng/mL and 4,628 ng/mL and 2,207 ng/mL and 1,008 ng/mL
  Half-life: 27.2 h and 33.2 h and 17.5 h and 25.5 h and 27.6 h and 43.8 h and 15.7 h and 14.2 h and 42.2 h and 23.8 h and 19.2 h and 32.9 h and 63.1 h and 44.4 h and 45.0 h and 50.6 h and 35.8 h
  Vdss: 136 L and 343 L and 248 L and 206 L and 199 L and 661 L and 142 L and 348 L and 439 L and 553 L and 604 L and 82.3 L and 85.1 L and 447 L and 274 L and 234 L and 317 L and 247 L
[4]; human, plasma, 150 mg, cycle 1
  concentration at 24 h: 119 ng/mL
  concentration at 48 h: 79.4 ng/mL
[4]; human, plasma, 150 mg, cycle 2
  concentration at 24 h: 121 ng/mL
  concentration at 48 h: 69.5 ng/mL
[4]; human, plasma, iv, 150 mg, Clearance, median, cycle 2, 150 mg i.v. over 30 min, 18 patients
  Clearance: 235 mL/min
[4]; human, plasma, iv, 150 mg, Cmax, median, cycle 2, 150 mg i.v. over 30 min, 18 patients
  Cmax: 1220 ng/mL
[4]; human, plasma, iv, 150 mg, Half-life, median, cycle 2, 150 mg i.v. over 30 min, 18 patients
  Half-life: 33 h
[4]; human, plasma, iv, 150 mg, Vdss, median, cycle 2, 150 mg i.v. over 30 min, 18 patients
  Vd: 261 L
[4]; human, plasma, iv, 150 mg, mean (±SD) clearance, 150 mg i.v.
  Clearance: 287 ± 196 mL/min
[4]; human, plasma, iv, 150 mg, mean (±SD) terminal half-life, 150 mg i.v.
  Half-life: 33.6 ± 13.5 h
Pgp [5]
  mean change of 99mTc-sestamibi accumulation and retention in the liver: +128%
Pgp [6]
  mode of inhibition of Pgp transport: noncompetitive
  transport substrate of Pgp: not a transport substrate of Pgp
Pgp [2]; 8, 24 and 48 h after 150 mg i.v.
  Pgp block by i.v. tariquidar compared with exogenous PSC833: as effective in blocking Pgp as an excess of PSC833 added exogenously
[7]
  effect of tariquidar on vinorelbine pharmacokinetics: no apparent effect of tariquidar on the disposition of vinorelbine; also recorded: did not affect the pharmacokinetics of vinorelbine
[7]; listed as Tariquidar
  effect of tariquidar on vinorelbine pharmacokinetics: no effects on vinorelbine pharmacokinetics
Pgp [8]; 150-mg dose
  effect on liver 99mTc-sestamibi clearance: reduced liver 99mTc-sestamibi clearance
Pgp [8]; baseline versus after tariquidar, all study patients
  difference in mean 99mTc-sestamibi AUC in heart, lungs and liver: Large differences were noted in Pgp-expressing liver but not in the heart nor in the lungs

## CCC1=C[C@@H]2CN(C1)Cc1c([nH]c3ccccc13)[C@@](C(=O)OC)(c1cc3c(cc1OC)N(C)[C@H]1[C@@](O)(C(=O)OC)[C@H](OC(C)=O)[C@]4(CC)C=CCN5CC[C@]31[C@@H]54)C2 [vinorelbine]
Days 1 and 8 every 21 d with tariquidar 150 mg, without filgrastim
  maximum tolerated dose of vinorelbine in the combination: 20 mg/m^2
[4]; human, in vivo
  effect of vinorelbine on tariquidar pharmacokinetics: no effect on tariquidar pharmacokinetics
[1]; i.v. weekly for 3 weeks every 28 days
  dose of vinorelbine felt to be tolerable with zosuquidar: 22.5 mg/m^2
[7]; [10]
  Clearance Post: 518 mL/min/m^2 and 536 mL/min/m^2 and 555 mL/min/m^2 and 1,097 mL/min/m^2 and 589 mL/min/m^2 and 617 mL/min/m^2 and 477 mL/min/m^2 and 462 mL/min/m^2
  t1/2 Post: 23 h and 51 h and 21 h and 43 h and 36 h and 58 h
[7]; [11]
  Clearance Post, median and range: 546 mL/min/m^2 and 462-1,097 mL/min/m^2
  t1/2 Post, median and range: 21 to 58 h
[7]; vinorelbine alone (pre), i.v. bolus 20 or 22.5 mg/m^2, individual patients
  AUC0-∞ Pre: 844 ng·h/mL and 635 ng·h/mL and 511 ng·h/mL and 838 ng·h/mL and 603 ng·h/mL and 758 ng·h/mL and 756 ng·h/mL
[7]; [12]
  Clearance Pre: 600 mL/min/m^2 and 444 mL/min/m^2 and 591 mL/min/m^2 and 652 mL/min/m^2 and 398 mL/min/m^2 and 553 mL/min/m^2 and 495 mL/min/m^2 and 496 mL/min/m^2
  t1/2 Pre: 22 h and 19 h and 28 h and 48 h and 21 h and 37 h and 36 h
[7]; [13]
  AUC0-∞ Pre, median and range: 511 to 844 ng·h/mL
  Clearance Pre, median and range: 524 mL/min/m^2 and 398-652 mL/min/m^2
  t1/2 Pre, median and range: 18 to 48 h
